Reference: ChEMBL document CHEMBL4261593, “Synthesis and antibacterial activity of novel 3-O-arylalkylcarbamoyl-3-O-descladinosyl-9-O-(2-chlorobenzyl)oxime clarithromycin derivatives” (2018)
Values after ≈ are worked out from the molar mass of the structure shown.

Legend:
Type in all cases: functional
Streptococcus pyogenes [1] = assay: Antibacterial activity against erythromycin-susceptible Streptococcus pyogenes 1 after 24 hrs by broth dilution assay; details: Streptococcus pyogenes, 1, 24 h
Staphylococcus aureus [2] = assay: Antibacterial activity against erythromycin-susceptible Staphylococcus aureus ATCC 25923 after 24 hrs by broth dilution assay; details: ATCC 25923, 24 h
Escherichia coli = assay: Antibacterial activity against penicillin-susceptible Escherichia coli ATCC 25922 after 24 hrs by broth dilution assay; details: ATCC 25922, 24 h
Pseudomonas aeruginosa = assay: Antibacterial activity against penicillin-susceptible Pseudomonas aeruginosa ATCC 27853 after 24 hrs by broth dilution assay; details: ATCC 27853, 24 h
Bacillus subtilis = assay: Antibacterial activity against penicillin-susceptible Bacillus subtilis ATCC 9372 after 24 hrs by broth dilution assay; details: ATCC 9372, 24 h
Staphylococcus aureus [3] = assay: Antibacterial activity against […] Staphylococcus aureus ATCC 29213 after 24 hrs by broth dilution assay; details: ATCC 29213, 24 h
Staphylococcus aureus [4] = assay: Antibacterial activity against penicillin-resistant Staphylococcus aureus ATCC 31007 after 24 hrs by broth dilution assay; details: ATCC 31007, 24 h
Streptococcus pyogenes [5] = assay: Antibacterial activity against erythromycin-resistant Streptococcus pyogenes 2 after 24 hrs by broth dilution assay; details: Streptococcus pyogenes, 2, 24 h
Streptococcus pneumoniae [6] = assay: Antibacterial activity against erythromycin-resistant Streptococcus pneumoniae A22072 expressing mefA gene after 24 hrs by broth dilution assay; details: A22072, 24 h
Streptococcus pneumoniae [7] = assay: Antibacterial activity against erythromycin-resistant Streptococcus pneumoniae B1 expressing ermB gene after 24 hrs by broth dilution assay; details: B1, 24 h
Streptococcus pneumoniae [8] = assay: Antibacterial activity against erythromycin-resistant Streptococcus pneumoniae AB11 expressing ermB and mefA genes after 24 hrs by broth dilution assay; details: AB11, 24 h

Structure (SMILES): CC[C@H]1OC(=O)[C@H](C)[C@@H](OC(=O)NCC(C)C)[C@H](C)[C@@H](O[C@@H]2O[C@H](C)C[C@H](N(C)C)[C@H]2O)[C@](C)(OC)C[C@@H](C)/C(=N/OCc2ccccc2Cl)[C@H](C)[C@@H](O)[C@]1(C)O
- MIC (Streptococcus pyogenes [1]): 1 µg/mL (≈ 1.21 µM)
- MIC (Staphylococcus aureus [2]): 8 µg/mL (≈ 9.66 µM)
- MIC (Escherichia coli): 128 µg/mL (≈ 154 µM)
- MIC (Pseudomonas aeruginosa): 128 µg/mL (≈ 154 µM)
- MIC (Bacillus subtilis): 2 µg/mL (≈ 2.41 µM)
- MIC (Staphylococcus aureus [3]): 128 µg/mL (≈ 154 µM)
- MIC (Staphylococcus aureus [4]): 8 µg/mL (≈ 9.66 µM)
- MIC (Streptococcus pyogenes [5]): 16 µg/mL (≈ 19.3 µM)
- MIC (Streptococcus pneumoniae [6]): 1 µg/mL (≈ 1.21 µM)
- MIC (Streptococcus pneumoniae [7]): 128 µg/mL (≈ 154 µM)
- MIC (Streptococcus pneumoniae [8]): 128 µg/mL (≈ 154 µM)

Structure (SMILES): CC[C@H]1OC(=O)[C@H](C)[C@@H](O[C@H]2C[C@@](C)(OC)[C@@H](O)[C@H](C)O2)[C@H](C)[C@@H](O[C@@H]2O[C@H](C)C[C@H](N(C)C)[C@H]2O)[C@](C)(OC)C[C@@H](C)C(=O)[C@H](C)[C@@H](O)[C@]1(C)O [CLARITHROMYCIN]
- MIC (Streptococcus pyogenes [1]): 0.03 µg/mL (≈ 0.0401 µM)
- MIC (Staphylococcus aureus [2]): 0.25 µg/mL (≈ 0.334 µM)
- MIC (Escherichia coli): 32 µg/mL (≈ 42.8 µM)
- MIC (Pseudomonas aeruginosa): 32 µg/mL (≈ 42.8 µM)
- MIC (Bacillus subtilis): 0.25 µg/mL (≈ 0.334 µM)
- MIC (Staphylococcus aureus [3]): 64 µg/mL (≈ 85.6 µM)
- MIC (Staphylococcus aureus [4]): 256 µg/mL (≈ 342 µM)
- MIC (Streptococcus pyogenes [5]): 256 µg/mL (≈ 342 µM)
- MIC (Streptococcus pneumoniae [6]): 2 µg/mL (≈ 2.67 µM)
- MIC (Streptococcus pneumoniae [7]): 128 µg/mL (≈ 171 µM)
- MIC (Streptococcus pneumoniae [8]): 128 µg/mL (≈ 171 µM)

Structure (SMILES): CC[C@H]1OC(=O)[C@H](C)[C@@H](OC(=O)NCc2ccco2)[C@H](C)[C@@H](O[C@@H]2O[C@H](C)C[C@H](N(C)C)[C@H]2O)[C@](C)(OC)C[C@@H](C)/C(=N/OCc2ccccc2Cl)[C@H](C)[C@@H](O)[C@]1(C)O
- MIC (Streptococcus pyogenes [1]): 4 µg/mL (≈ 4.69 µM)
- MIC (Staphylococcus aureus [2]): 16 µg/mL (≈ 18.8 µM)
- MIC (Escherichia coli): 128 µg/mL (≈ 150 µM)
- MIC (Pseudomonas aeruginosa): 128 µg/mL (≈ 150 µM)
- MIC (Bacillus subtilis): 4 µg/mL (≈ 4.69 µM)
- MIC (Staphylococcus aureus [3]): 128 µg/mL (≈ 150 µM)
- MIC (Staphylococcus aureus [4]): 8 µg/mL (≈ 9.38 µM)
- MIC (Streptococcus pyogenes [5]): 16 µg/mL (≈ 18.8 µM)
- MIC (Streptococcus pneumoniae [6]): 1 µg/mL (≈ 1.17 µM)
- MIC (Streptococcus pneumoniae [7]): 128 µg/mL (≈ 150 µM)
- MIC (Streptococcus pneumoniae [8]): 128 µg/mL (≈ 150 µM)

Structure (SMILES): CC[C@H]1OC(=O)[C@H](C)[C@@H](OC(=O)NCCc2ccc(OC)cc2)[C@H](C)[C@@H](O[C@@H]2O[C@H](C)C[C@H](N(C)C)[C@H]2O)[C@](C)(OC)C[C@@H](C)/C(=N/OCc2ccccc2Cl)[C@H](C)[C@@H](O)[C@]1(C)O
- MIC (Streptococcus pyogenes [1]): 2 µg/mL (≈ 2.21 µM)
- MIC (Staphylococcus aureus [2]): 16 µg/mL (≈ 17.6 µM)
- MIC (Escherichia coli): 128 µg/mL (≈ 141 µM)
- MIC (Pseudomonas aeruginosa): 128 µg/mL (≈ 141 µM)
- MIC (Bacillus subtilis): 2 µg/mL (≈ 2.21 µM)
- MIC (Staphylococcus aureus [3]): 128 µg/mL (≈ 141 µM)
- MIC (Staphylococcus aureus [4]): 4 µg/mL (≈ 4.41 µM)
- MIC (Streptococcus pyogenes [5]): 8 µg/mL (≈ 8.82 µM)
- MIC (Streptococcus pneumoniae [6]): 1 µg/mL (≈ 1.1 µM)
- MIC (Streptococcus pneumoniae [7]): 128 µg/mL (≈ 141 µM)
- MIC (Streptococcus pneumoniae [8]): 128 µg/mL (≈ 141 µM)

Structure (SMILES): CC[C@H]1OC(=O)[C@H](C)[C@@H](OC(=O)NCCc2ccc(OC)c(OC)c2)[C@H](C)[C@@H](O[C@@H]2O[C@H](C)C[C@H](N(C)C)[C@H]2O)[C@](C)(OC)C[C@@H](C)/C(=N/OCc2ccccc2Cl)[C@H](C)[C@@H](O)[C@]1(C)O
- MIC (Streptococcus pyogenes [1]): 1 µg/mL (≈ 1.07 µM)
- MIC (Staphylococcus aureus [2]): 8 µg/mL (≈ 8.54 µM)
- MIC (Escherichia coli): 128 µg/mL (≈ 137 µM)
- MIC (Pseudomonas aeruginosa): 128 µg/mL (≈ 137 µM)
- MIC (Bacillus subtilis): 4 µg/mL (≈ 4.27 µM)
- MIC (Staphylococcus aureus [3]): 128 µg/mL (≈ 137 µM)
- MIC (Staphylococcus aureus [4]): 8 µg/mL (≈ 8.54 µM)
- MIC (Streptococcus pyogenes [5]): 16 µg/mL (≈ 17.1 µM)
- MIC (Streptococcus pneumoniae [6]): 1 µg/mL (≈ 1.07 µM)
- MIC (Streptococcus pneumoniae [7]): 128 µg/mL (≈ 137 µM)
- MIC (Streptococcus pneumoniae [8]): 128 µg/mL (≈ 137 µM)

Structure (SMILES): CC[C@H]1OC(=O)[C@H](C)[C@@H](OC(=O)NCc2ccc(N)cc2)[C@H](C)[C@@H](O[C@@H]2O[C@H](C)C[C@H](N(C)C)[C@H]2O)[C@](C)(OC)C[C@@H](C)/C(=N/OCc2ccccc2Cl)[C@H](C)[C@@H](O)[C@]1(C)O
- MIC (Streptococcus pyogenes [1]): 1 µg/mL (≈ 1.14 µM)
- MIC (Staphylococcus aureus [2]): 16 µg/mL (≈ 18.2 µM)
- MIC (Escherichia coli): 128 µg/mL (≈ 146 µM)
- MIC (Pseudomonas aeruginosa): 128 µg/mL (≈ 146 µM)
- MIC (Bacillus subtilis): 4 µg/mL (≈ 4.56 µM)
- MIC (Staphylococcus aureus [3]): 128 µg/mL (≈ 146 µM)
- MIC (Staphylococcus aureus [4]): 16 µg/mL (≈ 18.2 µM)
- MIC (Streptococcus pyogenes [5]): 16 µg/mL (≈ 18.2 µM)
- MIC (Streptococcus pneumoniae [6]): 0.5 µg/mL (≈ 0.57 µM)
- MIC (Streptococcus pneumoniae [7]): 128 µg/mL (≈ 146 µM)
- MIC (Streptococcus pneumoniae [8]): 128 µg/mL (≈ 146 µM)

Structure (SMILES): C#CCNC(=O)O[C@H]1[C@H](C)[C@@H](O[C@@H]2O[C@H](C)C[C@H](N(C)C)[C@H]2O)[C@](C)(OC)C[C@@H](C)/C(=N/OCc2ccccc2Cl)[C@H](C)[C@@H](O)[C@](C)(O)[C@@H](CC)OC(=O)[C@@H]1C
- MIC (Streptococcus pyogenes [1]): 4 µg/mL (≈ 4.94 µM)
- MIC (Escherichia coli): 128 µg/mL (≈ 158 µM)
- MIC (Pseudomonas aeruginosa): 128 µg/mL (≈ 158 µM)
- MIC (Bacillus subtilis): 2 µg/mL (≈ 2.47 µM)
